Measurements taken from paper PMC7660103, “Discovery of Novel 3-Cyanopyridines as Survivin Modulators and Apoptosis Inducers” (Molecules, 2020).

Legend:
Livin = assay: Western blotting of Livin in MDA-MB-231 cells; assay type: cell-based, human; conditions: for Livin protein level (Western blot, in words): MDA-MB-231, 1, 5 and 10 µM
Protocol: (§1) The ability of the 2-oxo-3-cyano pyridines 5c and 5e to cause an inhibition of survivin was evaluated by the use of Western blotting analysis in MDA-MB-231cells treated with different concentrations of both compounds (1, 5, and 10 µM). […] Furthermore, to test the effect of these compounds on some other IAP family proteins, the Western plot of Livin, XIAP, and C-IAP1 proteins was performed (Figure 6). […] The Supplementary Material Figures S40 and S41 contain western blotting analysis for 5c and 5e.
(§2) MDA-MB-231 cancer cells were incubated with 5c and 5e at different concentrations (1, 5, and 10 µM) for 48 h. Afterwards, the medium was detached, and the cells were washed using PBS (10 mmol/L, pH 7.4). Then, the cells were incubated on cold lysis buffer (50 mmol/L Tris–HCl, 150 mmol/L NaCl, 1 mmol/L EGTA, 1 mmol/L EDTA, 20 mmol/L NaF, […], 0.5% NP40, 1% Triton X-100, 1 mmol/L PMSF (pH 7.4)) and a freshly added cocktail inhibitor (Inhibitor Cocktail Set III, Calbiochem, La Jolla, CA) above ice for 30 min. Then, MDA-MB-231 cells were collected and centrifuged at 12,000× g for 15 min.
(§3) XIAp, Survivin, Livin, and cIAP1anti-mouse, anti-rabbit secondary antibodies, and GAPDH were purchased from Sigma-Aldrich, whereas the gel was obtained from BioRad. Polyacrylamide gels were moved to a nitrocellulose membrane in order to block in buffer (7% nonfat dry milk/1% Tween 20; in 20 mmol/L TBS (pH 7.6)) for 1 h and incubated for 2 h at room temperature with the suitable primary antibody in blocking buffer or overnight at 4 °C; then, they were incubated with secondary antibody HRP conjugate. Finally, the blots analysis was done using the imaging system.

survivin = biological target: T1, survivin (Homo sapiens, UniProt O15392); assay: Rescue experiment with proteasome inhibitor MG132 (Western blot of survivin); assay type: cell-based; conditions: MDA-MB cells pre-treated with proteasome inhibitor MG132
T1 construct: Western blotting analysis in MDA-MB-231cells treated with different concentrations of both compounds; endogenous in cells; host or cells: MDA-MB-231
Protocol: Degradation of the dimeric proteins can result from the interaction with the hydrophobic dimerization interface, which leads to conformational changes. This degradation can be mediated by the proteasome enzyme. Since 5c and 5e were expected to inhibit survivin dimerization as shown in the docking study, we assumed that they may induce the degradation of survivin via the proteasome. Thus, a rescue experiment was performed by pre-treating MDA-MB-cells with the proteasome inhibitor MG132 prior to 5c/5e treatment. […] Thus, 5c and 5e likely promote survivin degradation through the proteasome.

C-IAP1 = assay: Western blotting of C-IAP1 in MDA-MB-231 cells; assay type: cell-based, human; conditions: for C-IAP1 protein level (Western blot, in words): MDA-MB-231, 1, 5 and 10 µM
Protocol: as §1, §2, §3

MDA-MB-231 cells = assay: Cell cycle analysis by flow cytometry; assay type: cell-based, human; conditions: MDA-MB-231, IC50 concentration, 24 h; for %Pre-G1: control 1.87; for %G2-M: control 4.38; for %S: control 35.21; for %G0-G1: control 60.41
Text: Survivin has been recognized to play dual roles in stimulating cell-cycle progression and in obstructing apoptosis. Additionally, survivin is known to be expressed mainly in the G2/M phase of the cell cycle. Therefore, it was significant to examine the ability of our promising compounds 5c and 5e to induce cell cycle arrest. […] As shown in Figure 2 and Table 3, both 5c and 5e caused an increase in the number of cells in the G2/M phase by 4.92 and 5.74 folds, respectively, compared to the control cells. At the same time, a decrease in the DNA content in the G0/G1 phase, and a slight decrease in the S phase cells were observed. […] Supplementary Material Figures S37–S39 contain the cell cycle analysis for control and compounds 5c and 5e.
After that, cells were collected by trypsin and washed in saline buffered with phosphate. Then, they were fixed using ice-cold alcohol. Afterwards, cells were stained by a Cycle TESTTM PLUS DNA Reagent Kit (BD Biosciences, San Jose, CA, USA) according to the manufacturer’s directions. The distribution of the cells in the cell cycle was calculated using a FACS Calibur flow cytometer (BD Biosciences, San Jose, CA, USA).

T1 sequence (O15392 whole entry): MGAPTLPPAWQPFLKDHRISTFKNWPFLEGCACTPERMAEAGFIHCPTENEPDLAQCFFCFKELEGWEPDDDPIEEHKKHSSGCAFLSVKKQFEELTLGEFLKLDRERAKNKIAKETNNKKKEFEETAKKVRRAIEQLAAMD

Compound	LIVIN band % (Livin; MDA-MB-231, 1µM)	LIVIN band Area (Livin; MDA-MB-231, 1µM)	LIVIN band Height (Livin; MDA-MB-231, 1µM)	LIVIN band Width (Livin; MDA-MB-231, 1µM)	LIVIN band % (Livin; MDA-MB-231, 5µM)	LIVIN band Area (Livin; MDA-MB-231, 5µM)	LIVIN band Height (Livin; MDA-MB-231, 5µM)	LIVIN band Width (Livin; MDA-MB-231, 5µM)	LIVIN band % (Livin; MDA-MB-231, 10µM)	LIVIN band Area (Livin; MDA-MB-231, 10µM)	LIVIN band Height (Livin; MDA-MB-231, 10µM)	LIVIN band Width (Livin; MDA-MB-231, 10µM)	Livin protein level (Western blot, in words) (Livin)	effect of MG132 pre-treatment on compound-induced survivin loss (survivin)	CIAP1 band % (C-IAP1; MDA-MB-231, 1µM)	CIAP1 band Area (C-IAP1; MDA-MB-231, 1µM)	CIAP1 band Height (C-IAP1; MDA-MB-231, 1µM)	CIAP1 band Width (C-IAP1; MDA-MB-231, 1µM)	CIAP1 band % (C-IAP1; MDA-MB-231, 5µM)	CIAP1 band Area (C-IAP1; MDA-MB-231, 5µM)	also measured
N#Cc1c(-c2ccc(Cl)cc2)cc(-c2ccc(OCc3ccc(F)cc3)cc2)[nH]c1=O [Compound 5c, 4-(4-Chlorophenyl)-6-(4-((4-fluorobenzyl)oxy)phenyl)-2-oxo-1,2-dihydropyridine-3-carbonitrile]	20.2%	1305	134	22	13.4%	793	84	17	9.1%	514	66	17	decreased the levels of these proteins	MG132 reversed 5c/5e-induced survivin loss	39.7%	2565	192	24	34.1%	1941	CIAP1 band Height (C-IAP1; MDA-MB-231, 5µM): 187; CIAP1 band Width (C-IAP1; MDA-MB-231, 5µM): 22; CIAP1 band % (C-IAP1; MDA-MB-231, 10µM): 31.9%; CIAP1 band Area (C-IAP1; MDA-MB-231, 10µM): 1884; CIAP1 band Height (C-IAP1; MDA-MB-231, 10µM): 186; CIAP1 band Width (C-IAP1; MDA-MB-231, 10µM): 18; C-IAP1 protein level (Western blot, in words) (C-IAP1): decreased the levels of these proteins; increase in the number of cells in the G2/M phase compared to control (MDA-MB-231 cells): 4.92 fold; %Pre-G1 (MDA-MB-231 cells): 16.32%; %G2-M (MDA-MB-231 cells): 21.57%; %S (MDA-MB-231 cells): 33.16%; %G0-G1 (MDA-MB-231 cells): 45.27%
COc1ccc(-c2cc(-c3ccc(OCc4ccc(F)cc4)cc3)[nH]c(=O)c2C#N)cc1 [Compound 5e, 6-(4-((4-Fluorobenzyl)oxy)phenyl)-4-(4-methoxyphenyl)-2-oxo-1,2-dihydropyridine-3-carbonitrile]	25.7%	2085	136	33	16.6%	907	68	27	9.8%	330	44	14	decreased the levels of these proteins	MG132 reversed 5c/5e-induced survivin loss	18.2%	987	98	24	12.6%	766	CIAP1 band Height (C-IAP1; MDA-MB-231, 5µM): 86; CIAP1 band Width (C-IAP1; MDA-MB-231, 5µM): 23; CIAP1 band % (C-IAP1; MDA-MB-231, 10µM): 10.2%; CIAP1 band Area (C-IAP1; MDA-MB-231, 10µM): 570; CIAP1 band Height (C-IAP1; MDA-MB-231, 10µM): 79; CIAP1 band Width (C-IAP1; MDA-MB-231, 10µM): 22; C-IAP1 protein level (Western blot, in words) (C-IAP1): decreased the levels of these proteins; increase in the number of cells in the G2/M phase compared to control (MDA-MB-231 cells): 5.74 fold; %Pre-G1 (MDA-MB-231 cells): 19.47%; %G2-M (MDA-MB-231 cells): 25.16%; %S (MDA-MB-231 cells): 32.48%; %G0-G1 (MDA-MB-231 cells): 42.36%
